Test results: publication PMC10692381 (Acta Pharmaceutica Sinica. B, 2023)

Molecular target: PRMT3 (Homo sapiens, UniProt O60678)
Assay: Fluorescence-based SAHH-coupled PRMT3 methylation assay
Assay type: biochemical

Sequence of PRMT3 (O60678 211-531): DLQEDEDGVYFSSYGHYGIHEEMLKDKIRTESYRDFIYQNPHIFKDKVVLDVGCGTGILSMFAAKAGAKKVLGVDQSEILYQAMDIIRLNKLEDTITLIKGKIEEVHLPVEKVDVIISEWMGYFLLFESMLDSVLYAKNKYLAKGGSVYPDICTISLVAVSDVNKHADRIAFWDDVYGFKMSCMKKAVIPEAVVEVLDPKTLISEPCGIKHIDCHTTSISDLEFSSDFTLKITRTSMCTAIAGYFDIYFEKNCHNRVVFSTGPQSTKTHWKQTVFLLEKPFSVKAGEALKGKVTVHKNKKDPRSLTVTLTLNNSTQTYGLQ

fold reduction in PRMT3 inhibition (compared to YD1113)	Compound	other results
	Nc1ncnc2c1ncn2[C@@H]1O[C@H](CSCCNC(=O)NCc2ccccc2)[C@@H](O)[C@H]1O [Compound 1c]	fold increased inhibition for PRMT3 (compared to 1b (linker 3C to 2C)): 140 fold
over 10 fold	Nc1ncnc2c1ncn2[C@@H]1O[C@H](CSCCNC(=O)NCc2ccc(F)cc2)[C@@H](O)[C@H]1O [Compound 1e]	
4 fold	Nc1ncnc2c1ncn2[C@@H]1O[C@H](CSCCNC(=O)Nc2ccccc2)[C@@H](O)[C@H]1O [Compound 1h]	
4 fold	Nc1ncnc2c1ncn2[C@@H]1O[C@H](CSCCNC(=O)Nc2ccc(F)cc2)[C@@H](O)[C@H]1O [Compound 1i]	
	Nc1ncnc2c1ncn2[C@@H]1O[C@H](CSCCNC(=O)Nc2ccc(Cl)cc2)[C@@H](O)[C@H]1O [Compound 1j]	fold reduction in PRMT3 inhibition (compared to 1i): 10 fold
	Nc1ncnc2c1ncn2[C@@H]1O[C@H](CSCCNC(=O)Nc2cccc3ccccc23)[C@@H](O)[C@H]1O [Compound 1k]	fold reduction in PRMT3 inhibition (compared to phenyl (1h)): over 40 fold
